Common to all, as to type: functional
For experiment [1], the species on record is Mus musculus.
The species named for experiment [2] is Mus musculus. This is another data set of the same source.
Experiment [3] is filed under the species Mus musculus. The source holds these as a separate data set.

As for `c1ccc(C2(N3CCCCC3)CCCCC2)cc1` [PHENCYCLIDINE], the No. of mice in experiment [1] amounted to 4; in experiment [2] it was 0; in experiment [3] it was 0.

Values taken from ChEMBL document CHEMBL1121693 (1981).
